{"source": "paper PMC8841457", "about": "(Clinical and Translational Science, 2021)", "key": {"[1]": {"test_system": "healthy recreational polydrug users", "assay": "Drug Liking VAS, human abuse potential study", "type": "in vivo", "details": "for Drug Liking VAS Emax LS mean difference: mixed-effect model"}, "[2]": {"test_system": "healthy recreational polydrug users", "assay": "Drug Similarity VAS at 8 h postdose", "type": "in vivo, human", "details": "pentazocine 0.5 mg/kg i.v."}, "[3]": {"test_system": "healthy recreational polydrug users", "assay": "Pupillometry", "type": "in vivo, human", "details": "pentazocine 0.5 mg/kg i.v.; 8-h postdose period"}, "[4]": {"test_system": "healthy recreational polydrug users", "assay": "Treatment-emergent adverse events", "type": "in vivo, human", "details": "pentazocine 0.5 mg/kg single i.v., n = 40; safety population"}, "[5]": {"assay": "Plasma pharmacokinetics after single i.v. dose", "details": "pentazocine 0.5 mg/kg single i.v., n = 40"}, "[6]": {"test_system": "healthy recreational polydrug users", "assay": "Drug effect questionnaire", "details": "pentazocine 0.5 mg/kg and difelikefalin 5 and 15 mcg/kg i.v.; unipolar 0-100 VAS"}, "[7]": {"test_system": "healthy recreational polydrug users", "assay": "Global retrospective assessments at 8 h postdose", "details": "pentazocine 0.5 mg/kg i.v."}}, "data": [{"smiles": "CC(C)=CCN1CCC2(C)c3cc(O)ccc3CC1C2C", "note": "(centres unmarked) [Pentazocine, pentazocine]", "values": [{"measurement": "Drug Liking VAS Emax LS mean difference", "setting": "[1]; pentazocine 0.5 mg/kg i.v. vs difelikefalin 5 mcg/kg i.v., completer set N = 39", "result": 21.95}, {"measurement": "Drug Liking VAS Emax LS mean difference", "setting": "[1]; pentazocine 0.5 mg/kg i.v. vs difelikefalin 15 mcg/kg i.v., completer set N = 39", "result": 20.92}, {"measurement": "Drug Liking VAS Emax LS mean difference", "setting": "[1]; pentazocine 0.5 mg/kg i.v. vs placebo, completer set N = 39", "result": 35.50}, {"measurement": "Mean Drug Liking VAS scores", "setting": "[1]; pentazocine 0.5 mg/kg i.v., over the first 3 h", "result": "> 60", "unit": "points"}, {"measurement": "Drug Liking VAS Emax, median (min, max)", "setting": "[1]; pentazocine 0.5 mg/kg single i.v., completer set N = 39", "result": "91.0 (49, 100)"}, {"measurement": "Drug Similarity VAS, median, cannabinoids, hallucinogens, or stimulants", "setting": "[2]; unipolar 0-100", "result": "≤ 2.0"}, {"measurement": "Drug Similarity VAS, median, benzodiazepines", "setting": "[2]; unipolar 0-100, n=8", "result": 22.5}, {"measurement": "Drug Similarity VAS, median, opioids", "setting": "[2]; unipolar 0-100, n=38", "result": 65.0}, {"measurement": "mean Emax reduction in pupil diameter from baseline (predose)", "setting": "[3]", "result": 2.5, "unit": "mm"}, {"measurement": "Any TEAE, subjects", "setting": "[4]", "result": "13 (32.5) n (%)"}, {"measurement": "Any serious TEAE, subjects", "setting": "[4]", "result": "0 n (%)"}, {"measurement": "Any severe TEAE, subjects", "setting": "[4]", "result": "0 n (%)"}, {"measurement": "Discontinuation due to TEAE, subjects", "setting": "[4]", "result": "1 (2.5) n (%)"}, {"measurement": "TEAE Abdominal pain upper, subjects", "setting": "[4]", "result": "0 n (%)"}, {"measurement": "TEAE Abdominal pain, subjects", "setting": "[4]", "result": "0 n (%)"}, {"measurement": "TEAE Chills, subjects", "setting": "[4]", "result": "2 (5.0) n (%)"}, {"measurement": "TEAE Constipation, subjects", "setting": "[4]", "result": "1 (2.5) n (%)"}, {"measurement": "TEAE Dizziness, subjects", "setting": "[4]", "result": "2 (5.0) n (%)"}, {"measurement": "TEAE Dyspepsia, subjects", "setting": "[4]", "result": "0 n (%)"}, {"measurement": "TEAE Groin pain, subjects", "setting": "[4]", "result": "0 n (%)"}, {"measurement": "TEAE Headache, subjects", "setting": "[4]", "result": "4 (10.0) n (%)"}, {"measurement": "TEAE Hot flush, subjects", "setting": "[4]", "result": "3 (7.5) n (%)"}, {"measurement": "TEAE Hypoesthesia, subjects", "setting": "[4]", "result": "1 (2.5) n (%)"}, {"measurement": "TEAE Nausea, subjects", "setting": "[4]", "result": "5 (12.5) n (%)"}, {"measurement": "TEAE Vomiting, subjects", "setting": "[4]", "result": "5 (12.5) n (%)"}, {"measurement": "Cmax", "setting": "[5]; human plasma, tandem MS, mean (SD)", "result": "296.0 (197.7) ng/ml"}, {"measurement": "AUC0-t", "setting": "[5]; mean (SD)", "result": "487.4 (133.5) h*ng/ml"}, {"measurement": "V d", "setting": "[5]; mean (SD)", "result": "4280 (1079.8) ml/kg"}, {"measurement": "t 1/2", "setting": "[5]; mean (SD)", "result": "3.7 (1.2) h"}, {"measurement": "Tmax", "setting": "[5]; median [range]", "result": "0.1 [0.1, 0.8] h"}, {"measurement": "Bad Effects VAS Emax, scores overall", "setting": "[6]", "result": "< 20", "unit": "points"}, {"measurement": "PVAQ median value", "setting": "[7]; 8 h postdose", "result": "10.00 $"}, {"measurement": "PVAQ mean value", "setting": "[7]; 8 h postdose, $0-$100 scale", "result": "9.60 $"}, {"measurement": "Mean 8-h score, Overall Drug Liking VAS", "setting": "[7]; bipolar VAS, 50 neutral", "result": "greater than or equal to 69 points"}, {"measurement": "Mean 8-h score, Take Drug Again VAS", "setting": "[7]; bipolar VAS, 50 neutral", "result": "greater than or equal to 69 points"}]}]}
